Assay results: patent publication US10294202B2, “Pyrrolidinones as herbicides” (FMC Corporation, priority 2013, dated 2019)

Columns and labels:
ryegrass, Italian [1] = test: Test D pre-/postemergence herbicide test; format: in vivo, Lolium multiflorum; conditions: for Plant response rating, Ryegrass, Italian: Preemergence, scale 0 to 100 (0 no effect, 100 complete control); for Plant response rating: Postemergence, Ryegrass, Italian, scale 0 to 100
Procedure, shortened: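 Seeds sown in silt loam were sprayed preemergence with test chemicals in a non-phytotoxic solvent mixture with surfactant. Postemergence plants grown in peat/vermiculite medium were treated at 2–18 cm (1- to 4-leaf stage). After 7 to 21 days in a controlled environment, injury was rated visually versus controls, 0 (no effect) to 100 (complete control).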

field bindweed = test: Test E preemergence herbicide test; format: in vivo, Convolvulus arvensis; set-up: key: 0 = no effect, 100 = complete control
From the text: (§1) Seeds of plant species selected from corn (Zea mays), soybean (Glycine max), velvetleaf (Abutilon theophrasti), lambsquarters (Chenopodium album), wild poinsettia (Euphorbia heterophylla), pigweed, palmer (palmer pigweed, Amaranthus palmeri), waterhemp (common waterhemp, Amaranthus rudis), surinam grass (Brachiaria decumbens), crabgrass, large (large crabgrass, Digitaria sanguinalis), crabgrass, Brazil (Brazilian crabgrass, Digitaria horizontalis), panicum, fall (fall panicum, Panicum dichotomiflorum), foxtail, giant (giant foxtail, Setaria faberii), foxtail, green (green foxtail, Setaria viridis), goosegrass (Eleusine indica), johnsongrass (Sorghum halepense), ragweed (common ragweed, Ambrosia elatior), barnyardgrass (Echinochloa crus-galli), sandbur (southern sandbur, Cenchrus echinatus), arrowleaf […] rhombifolia), ryegrass, Italian (Italian ryegrass, Lolium multiflorum), dayflower, VA (Virginia dayflower, Commelina virginica), field bindweed (Convolvulus arvensis), morningglory (Ipomoea coccinea), nightshade (eastern black nightshade, Solanum ptycanthum), kochia (Kochia scoparia), nutsedge, yellow (yellow nutsedge, Cyperus esculentus), cocklebur (common cocklebur, Xanthium strumarium), smartweed (ladysthumb smartweed, Polygonum Persicaria) and beggarticks (hairy beggarticks, Bidens pilosa), were planted into a silt loam soil and treated preemergence with test chemicals formulated in a non-phytotoxic solvent mixture which included a surfactant. Treated plants and controls were maintained in a greenhouse for 21 days, after which time all species were compared to controls and visually evaluated. Plant response ratings, summarized in Table E, are based on a scale of 0 to 100 where 0 is no effect and 100 is complete control. A dash (-) response means no test result.

goosegrass = test: Test E preemergence herbicide test; format: in vivo, Eleusine indica; set-up: key: 0 = no effect, 100 = complete control
Procedure, shortened: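 Seeds sown in silt loam soil received preemergence treatment with compound in a non-phytotoxic solvent mixture containing surfactant. After 21 days in the greenhouse, plants were visually rated against untreated controls on a 0 (no effect) to 100 (complete control) scale.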

nightshade = test: Test E preemergence herbicide test; format: in vivo, Solanum ptycanthum; set-up: key: 0 = no effect, 100 = complete control
From the text: as §1

ryegrass, Italian [2] = test: Test E preemergence herbicide test; format: in vivo, Lolium multiflorum; set-up: key: 0 = no effect, 100 = complete control
From the text: as §1

bromegrass, downy = test: Test C pre-/postemergence herbicide test; format: in vivo, Bromus tectorum
Procedure, shortened: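 Visual rating, 0 (no effect) to 100 (complete control), versus untreated controls after 13 to 15 days in the greenhouse. Pre: seeds in loam/sand, sprayed at planting. Post: 1- to 4-leaf plants (2 to 18 cm) in peat-based mix. Compounds in non-phytotoxic solvent plus surfactant.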

[3] = Preemergence, 62 g ai/ha, scale 0 to 100
[4] = Preemergence, 125 g ai/ha, scale 0 to 100 (0 no effect, 100 complete control)
[5] = Preemergence, 31 g ai/ha, scale 0 to 100 (0 no effect, 100 complete control)
[6] = Preemergence, 250 g ai/ha, scale 0 to 100 (0 no effect, 100 complete control)

Compound	Plant response rating, Ryegrass, Italian (ryegrass, Italian [1]; 62 g ai/ha)	Plant response rating, Ryegrass, Italian (ryegrass, Italian [1]; 125 g ai/ha)	Plant response rating, Ryegrass, Italian (ryegrass, Italian [1]; 31 g ai/ha)	Plant response rating, Ryegrass, Italian (ryegrass, Italian [1]; 250 g ai/ha)	Plant response rating, Field Bindweed (field bindweed; 31 g ai/ha)	Plant response rating, Field Bindweed (field bindweed; 62 g ai/ha)	Plant response rating, Field Bindweed (field bindweed; 125 g ai/ha)	Plant response rating, Field Bindweed (field bindweed; 250 g ai/ha)	Plant response rating, Goosegrass (goosegrass; 31 g ai/ha)	Plant response rating, Goosegrass (goosegrass; 62 g ai/ha)	Plant response rating, Goosegrass (goosegrass; 125 g ai/ha)	Plant response rating, Goosegrass (goosegrass; 250 g ai/ha)	Plant response rating, Nightshade (nightshade; 31 g ai/ha)	Plant response rating, Nightshade (nightshade; 62 g ai/ha)	Plant response rating, Nightshade (nightshade; 125 g ai/ha)	Plant response rating, Nightshade (nightshade; 250 g ai/ha)	Plant response rating, Ryegrass, Italian (ryegrass, Italian [2]; 31 g ai/ha)	Plant response rating, Ryegrass, Italian (ryegrass, Italian [2]; 62 g ai/ha)	Plant response rating, Ryegrass, Italian (ryegrass, Italian [2]; 125 g ai/ha)	Plant response rating, Ryegrass, Italian (ryegrass, Italian [2]; 250 g ai/ha)	other results
O=C1NC[C@H](c2cccc(C(F)(F)F)c2)[C@H]1C(=O)Nc1cccc(F)c1F [Compound 206]	30	55	35	75	20	20	30	50	0	0	70	90	0	0	5	10	0	35	80	65	
O=C1NC[C@H](c2cccc(C(F)(F)F)c2)[C@H]1C(=O)Nc1ccccc1F [Compound 204, (3R,4S)—N-(2-fluorophenyl)-2-oxo-4-[3-(trifluoromethyl)phenyl]-3-pyrrolidinecarboxamide]	15	45	5	60	0	0	0	30	0	0	0	0	0	20	100	100	0	0	25	30	
O=C1NCC(c2ccc(C(F)(F)F)cc2)C1C(=O)Nc1cccc(F)c1F (stereo not drawn) [Compound 80, N-(2,3-difluorophenyl)-2-oxo-4-[4-(trifluoromethyl)phenyl]-3-pyrrolidinecarboxamide]	5	5	0	15	0	0	0	0	30	60	70	80		60	70	70	0	0	45	60	Plant response rating (ryegrass, Italian [1]; 31 g ai/ha): 0; Plant response rating (ryegrass, Italian [1]; 62 g ai/ha): 0; Plant response rating (ryegrass, Italian [1]; 125 g ai/ha): 0; Plant response rating (ryegrass, Italian [1]; 250 g ai/ha): 0; Plant response rating, Field Bindweed (field bindweed; 16 g ai/ha): 0; Plant response rating, Goosegrass (goosegrass; 16 g ai/ha): 10; Plant response rating, Nightshade (nightshade; 16 g ai/ha): 50; Plant response rating, Ryegrass, Italian (ryegrass, Italian [2]; 16 g ai/ha): 0
O=C1NCC(c2ccc(F)c(F)c2)C1C(=O)Nc1cccc(F)c1F (stereo not drawn) [Compound 17, N-(2,3-difluorophenyl)-4-(3,4-difluorophenyl)-2-oxo-3-pyrrolidinecarboxamide]					0	0	0	0	0	0	0	35		0	0	0	0	0	0	0	Plant response rating (ryegrass, Italian [1]; 16 g ai/ha): 0; Plant response rating (ryegrass, Italian [1]; 31 g ai/ha): 0; Plant response rating (ryegrass, Italian [1]; 62 g ai/ha): 0; Plant response rating (ryegrass, Italian [1]; 125 g ai/ha): 0; Plant response rating (ryegrass, Italian [1]; 250 g ai/ha): 0; Plant response rating, Field Bindweed (field bindweed; 16 g ai/ha): 0; Plant response rating, Bromegrass, Downy (bromegrass, downy; Postemergence, 31 g ai/ha, scale 0 (no effect) to 100 (complete control)): 0; Plant response rating, Bromegrass, Downy (bromegrass, downy; Postemergence, 62 g ai/ha, scale 0 to 100 (0 no effect, 100 complete control)): 0; Plant response rating, Bromegrass, Downy (bromegrass, downy; Postemergence, 125 g ai/ha, scale 0 to 100 (0 no effect, 100 complete control)): 0; Plant response rating, Bromegrass, Downy (bromegrass, downy; Postemergence, 250 g ai/ha, scale 0 to 100 (0 no effect, 100 complete control)): 0; Plant response rating, Bromegrass, Downy (bromegrass, downy; [3]): 30; Plant response rating, Bromegrass, Downy (bromegrass, downy; [4]): 45; Bromegrass, Downy plant response rating (bromegrass, downy; [5]): 0; Plant response rating, Bromegrass, Downy (bromegrass, downy; [6]): 65; Plant response rating, Goosegrass (goosegrass; 16 g ai/ha): 0; Plant response rating, Nightshade (nightshade; 16 g ai/ha): 0; Plant response rating, Ryegrass, Italian (ryegrass, Italian [2]; 16 g ai/ha): 0
O=C1NCC(c2ccc(Cl)c(Cl)c2)C1C(=O)Nc1ccccc1F (racemic) [Compound 14]					0	0	0	0	0	0	0	0	0	30	50	70	0	0	0	0	Plant response rating, Field Bindweed (field bindweed; 16 g ai/ha): 0; Plant response rating, Bromegrass, Downy (bromegrass, downy; [3]): 0; Plant response rating, Bromegrass, Downy (bromegrass, downy; [4]): 0; Bromegrass, Downy plant response rating (bromegrass, downy; [5]): 0; Plant response rating, Bromegrass, Downy (bromegrass, downy; [6]): 0; Plant response rating, Goosegrass (goosegrass; 16 g ai/ha): 0; Plant response rating, Nightshade (nightshade; 16 g ai/ha): 0; Plant response rating, Ryegrass, Italian (ryegrass, Italian [2]; 16 g ai/ha): 0
O=C1NCC(c2ccc(C(F)(F)F)cc2)C1C(=O)Nc1cccc(F)c1F (racemic) [Compound 202]	5	5	0	10	60	40	50	70	35	70	90	98	0	50	90	80	0	0	25	50	Plant response rating (ryegrass, Italian [1]; 31 g ai/ha): 0; Plant response rating (ryegrass, Italian [1]; 62 g ai/ha): 0; Plant response rating (ryegrass, Italian [1]; 125 g ai/ha): 10; Plant response rating (ryegrass, Italian [1]; 250 g ai/ha): 15
